Results as given in BindingDB's records for PubMed 39270452 (Haihe Biopharma).

Target: T1, Ectonucleotide pyrophosphatase/phosphodiesterase family member 1 (Homo sapiens, UniProt P22413)
T1 sequence (P22413 whole entry): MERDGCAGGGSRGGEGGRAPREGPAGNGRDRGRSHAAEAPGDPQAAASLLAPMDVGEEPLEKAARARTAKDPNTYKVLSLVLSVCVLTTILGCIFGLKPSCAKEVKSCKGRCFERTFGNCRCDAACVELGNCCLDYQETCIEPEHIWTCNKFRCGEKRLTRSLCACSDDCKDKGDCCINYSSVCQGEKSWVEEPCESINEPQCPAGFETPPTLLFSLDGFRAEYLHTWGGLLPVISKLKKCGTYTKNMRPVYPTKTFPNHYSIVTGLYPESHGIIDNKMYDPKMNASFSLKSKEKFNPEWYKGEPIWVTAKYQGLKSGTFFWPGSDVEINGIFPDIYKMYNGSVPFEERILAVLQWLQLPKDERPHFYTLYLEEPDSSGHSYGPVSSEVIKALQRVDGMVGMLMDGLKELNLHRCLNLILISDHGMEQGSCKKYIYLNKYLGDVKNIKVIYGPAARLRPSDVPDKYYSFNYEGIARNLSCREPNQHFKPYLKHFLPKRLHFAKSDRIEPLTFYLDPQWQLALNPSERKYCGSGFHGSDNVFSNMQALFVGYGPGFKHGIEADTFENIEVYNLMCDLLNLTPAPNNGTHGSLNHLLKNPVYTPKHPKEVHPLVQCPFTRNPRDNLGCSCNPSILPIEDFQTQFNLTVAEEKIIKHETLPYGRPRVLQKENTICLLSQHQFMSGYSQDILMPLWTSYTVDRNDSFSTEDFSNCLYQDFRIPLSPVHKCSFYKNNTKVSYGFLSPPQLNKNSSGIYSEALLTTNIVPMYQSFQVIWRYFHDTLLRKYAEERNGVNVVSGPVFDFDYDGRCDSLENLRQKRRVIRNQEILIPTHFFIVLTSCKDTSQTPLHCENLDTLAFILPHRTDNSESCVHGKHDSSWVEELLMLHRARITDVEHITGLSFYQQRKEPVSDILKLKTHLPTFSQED
Test: Inhibition of human recombinant ENPP1 at pH 7.5

COc1cc2nccc(Nc3ccc(CC(=O)NO)cc3)c2cc1OC [US20240383893, Compound A-1] gave an IC50 of 89 nM.
